Assay results published in US9381200B2, “Nitrogen containing compounds” (WOCKHARDT LIMITED, priority 2011, dated 2016).
≈ marks a conversion by molar mass, not a printed value. Like-named read-outs stand apart in the source and are kept apart here.

Assays:
Format in all cases: cell-based
A. baumannii S-334 = assay: Antibacterial activity of sulbactam / Cefepime combinations with a compound of the invention (MIC); settings: Acinetobacter baumannii
Description: (§1) The biological activity of representative compounds according to the invention against various bacterial strains was investigated. In a typical study, overnight grown bacterial cultures were diluted appropriately and inoculated on the agar media containing doubling dilutions of the test compounds. Observation for growth or no growth was performed after 16-20 hours of incubation at 35±2° C. in ambient air. The overall procedure was performed as per Clinical and Laboratory Standards Institute (CLSI) recommendations (Clinical and Laboratory Standards Institute (CLSI), Performance Standards for Antimicrobial Susceptibility Testing, 20th Informational Supplement, M 100-S20, Volume 30, No. 1, 2010).

A. baumannii G-165 = assay: as above; settings: Acinetobacter baumannii
Description: as §1

A. baumannii 1460648 = assay: as above
Description: as §1

A. baumannii J-143 = assay: as above; settings: Acinetobacter baumannii
Description: as §1

E. coli M 50 = assay: Antibacterial activity (MIC), agar dilution per CLSI; settings: Escherichia coli, read-out: MIC
Procedure, shortened: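 Agar dilution, CLSI method: diluted overnight culture spotted on agar with 2-fold compound series; 16-20 h, 35±2° C., ambient air; read growth/no growth; MIC in mcg/ml.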

E. Coli W 13353 = assay: Antibacterial activity (MIC) against MDR Gram negative strains; settings: Escherichia coli; Table 4; E. Coli W 13353, Class A ESBL, MDR; read-out: MIC
Description: as §1
(§2) The activities are expressed as MICs (mcg/ml).

K penumoniae H 521 = assay: as above; settings: Table 4; K penumoniae H 521, KPC ESBL, MDR; read-out: MIC
Description: as §1, §2

P. aeruginosa Ps 32 = assay: as above; settings: Pseudomonas aeruginosa, PS32; Table 5; P. aeruginosa Ps 32; read-out: MIC
Description: as §1, §2

E. Coli M 44 = assay: as above; settings: Escherichia coli; Table 5; E. Coli M 44, Class B ESBL, MDR; read-out: MIC
Description: as §1, §2

E. Coli B 89 = assay: as above; settings: Escherichia coli; Table 4; E. Coli B 89, Class C ESBL, MDR; read-out: MIC
Description: as §1, §2

P. aeruginosa ATCC 27853 = assay: as above; settings: Pseudomonas aeruginosa, ATCC27853; Table 5; P. aeruginosa ATCC 27853; read-out: MIC
Description: as §1, §2

K penumoniae H 525 = assay: as above; settings: Table 4; K penumoniae H 525, KPC ESBL, MDR; read-out: MIC
Description: as §1, §2

E. Coli H 484 = assay: as above; settings: Escherichia coli; Table 4; E. Coli H 484, Class C ESBL, MDR; read-out: MIC
Description: as §1, §2

E. Coli W 13352 = assay: as above; settings: Escherichia coli; Table 4; E. Coli W 13352, Class A ESBL, MDR; read-out: MIC
Description: as §1, §2

E. Coli M 3 = assay: as above; settings: Escherichia coli; Table 5; E. Coli M 3, Class B ESBL, MDR; read-out: MIC
Description: as §1, §2

K penumoniae H 523 = assay: as above; settings: Table 4; K penumoniae H 523, KPC ESBL, MDR; read-out: MIC
Description: as §1, §2

E. Coli W 13351 = assay: as above; settings: Escherichia coli; Table 4; E. Coli W 13351, Class A ESBL, MDR; read-out: MIC
Description: as §1, §2

P. aeruginosa Ps 21 = assay: as above; settings: Pseudomonas aeruginosa, PS21; Table 5; P. aeruginosa Ps 21; read-out: MIC
Description: as §1, §2

K. penumoniae S 48 = assay: as above; settings: Table 5; K. penumoniae S 48, Class B ESBL, MDR; read-out: MIC
Description: as §1, §2

E. coli 7 MP = assay: Antibacterial activity (MIC), agar dilution per CLSI; settings: Escherichia coli, Table 3, E. coli 7 MP expressing ESBL, read-out: MIC
Procedure, shortened: (§3)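 Agar dilution MIC per CLSI: overnight cultures diluted and inoculated onto agar containing doubling dilutions of compound. Growth/no growth read after 16-20 h at 35±2° C in ambient air. Strains express ESBL.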

E. coli NCTC 13351 = assay: as above; settings: Escherichia coli, NCTC13351, Table 3, E. coli NCTC 13351 expressing ESBL, 16-20 hours, 35±2° C., read-out: MIC
Procedure, shortened: as §3

[1] = S334, footnotes of Tables 7 and 8, A. baumannii S-334, substance used alone, read-out: Standalone MIC
[2] = G165, footnotes of Tables 7 and 8, A. baumannii G-165, substance used alone, read-out: Standalone MIC
[3] = Acinetobacter baumannii, footnotes of Tables 7 and 8, A. baumannii 1460648, substance used alone, read-out: Standalone MIC
[4] = J143, footnotes of Tables 7 and 8, A. baumannii J-143, substance used alone, read-out: Standalone MIC
[5] = M50, Table 3, E. coli M 50 expressing ESBL, agar dilution
[6] = M50, Table 4, E. Coli M 50, Class C ESBL, MDR

| Compound | MIC (E. coli M 50; [5]) [µg/mL] | MIC (E. coli M 50; [6]) [µg/mL] | MIC (E. Coli W 13353) [µg/mL] | MIC (K penumoniae H 521) [µg/mL] | MIC (P. aeruginosa Ps 32) [µg/mL] | MIC (E. Coli M 44) [µg/mL] | MIC (E. Coli B 89) [µg/mL] | MIC (P. aeruginosa ATCC 27853) [µg/mL] | MIC (K penumoniae H 525) [µg/mL] | MIC (E. Coli H 484) [µg/mL] | MIC (E. Coli W 13352) [µg/mL] | MIC (E. Coli M 3) [µg/mL] | MIC (K penumoniae H 523) [µg/mL] | MIC (E. Coli W 13351) [µg/mL] | MIC (P. aeruginosa Ps 21) [µg/mL] | MIC (K. penumoniae S 48) [µg/mL] | MIC (E. coli 7 MP) [µg/mL] | MIC (E. coli NCTC 13351) [µg/mL] | further results |
| --- | --- | --- | --- | --- | --- | --- | --- | --- | --- | --- | --- | --- | --- | --- | --- | --- | --- | --- | --- |
| O=C(NNC(=O)[C@@H]1CC[C@@H]2CN1C(=O)N2OS(=O)(=O)O)[C@@H]1CCCNC1 [Example 2, trans-sulfuric acid mono-[2-(N′—[(R)-piperidin-3-carbonyl]-hydrazinocarbonyl)-7-oxo-1,6-diaza-bicyclo[3.2.1]oct-6-yl]ester] | 0.25 (≈ 0.639 µM) | 0.25 (≈ 0.639 µM) | 0.12 (≈ 0.307 µM) | 0.5 (≈ 1.28 µM) | 8 (≈ 20.4 µM) | 0.5 (≈ 1.28 µM) | 0.25 (≈ 0.639 µM) | 8 (≈ 20.4 µM) | 0.5 (≈ 1.28 µM) | 0.12 (≈ 0.307 µM) | 0.25 (≈ 0.639 µM) | 2 (≈ 5.11 µM) | 1 (≈ 2.55 µM) | 0.25 (≈ 0.639 µM) | 8 (≈ 20.4 µM) | 0.5 (≈ 1.28 µM) | 1 (≈ 2.55 µM) | 0.25 (≈ 0.639 µM) | MIC (A. baumannii S-334; [1]): > 32 µg/mL; MIC (A. baumannii G-165; [2]): > 32 µg/mL; MIC (A. baumannii 1460648; [3]): > 32 µg/mL; MIC (A. baumannii J-143; [4]): > 32 µg/mL |
| CO/N=C(\C(=O)N[C@@H]1C(=O)N2C(C(=O)[O-])=C(C[N+]3(C)CCCC3)CS[C@H]12)c1csc(N)n1 [Cefepime] | – | – | – | – | – | – | – | – | – | – | – | – | – | – | – | – | – | – | MIC (A. baumannii S-334; S334, Table 8, A. baumannii S-334, Cefepime alone or with sulbactam and/or compound at fixed concentrations as named in the composition, read-out: MIC of Cefepime): 32 µg/mL; MIC (A. baumannii G-165; G165, Table 8, A. baumannii G-165, Cefepime alone or with sulbactam and/or compound at fixed concentrations as named in the composition, read-out: MIC of Cefepime): > 32 µg/mL; MIC (A. baumannii 1460648; Acinetobacter baumannii, Table 8, A. baumannii 1460648, Cefepime alone or with sulbactam and/or compound at fixed concentrations as named in the composition, read-out: MIC of Cefepime): > 32 µg/mL; MIC (A. baumannii J-143; J143, Table 8, A. baumannii J-143, Cefepime alone or with sulbactam and/or compound at fixed concentrations as named in the composition, read-out: MIC of Cefepime): > 32 µg/mL |
| O=C(NNC(=O)[C@@H]1CC[C@@H]2CN1C(=O)N2OS(=O)(=O)O)[C@@H]1CCNC1 [Example 3, trans-sulfuric acid mono-[2-(N′—[(R)-pyrrolidin-3-carbonyl]-hydrazinocarbonyl)-7-oxo-1,6-diaza-bicyclo[3.2.1]oct-6-yl]ester] | 0.25 (≈ 0.662 µM) | 0.5 (≈ 1.32 µM) | 0.25 (≈ 0.662 µM) | 0.5 (≈ 1.32 µM) | 4 (≈ 10.6 µM) | 0.12 (≈ 0.318 µM) | 0.25 (≈ 0.662 µM) | 2 (≈ 5.3 µM) | 0.5 (≈ 1.32 µM) | 0.5 (≈ 1.32 µM) | 0.5 (≈ 1.32 µM) | 0.5 (≈ 1.32 µM) | 0.5 (≈ 1.32 µM) | 0.5 (≈ 1.32 µM) | 4 (≈ 10.6 µM) | 0.5 (≈ 1.32 µM) | 1 (≈ 2.65 µM) | 0.25 (≈ 0.662 µM) | MIC (A. baumannii S-334; [1]): > 32 µg/mL; MIC (A. baumannii G-165; [2]): > 32 µg/mL; MIC (A. baumannii 1460648; [3]): > 32 µg/mL; MIC (A. baumannii J-143; [4]): > 32 µg/mL |
| NCCC(=O)NNC(=O)[C@H]1CC[C@@H]2CN1C(=O)N2OS(=O)(=O)O (relative stereo) [Example 8, trans-sulfuric acid mono-[2-(N′-(3-amino-propioyl)-hydrazinocarbonyl)-7-oxo-1,6-diaza-bicyclo[3.2.1]oct-6-yl]ester] | 1 (≈ 2.85 µM) | 1 (≈ 2.85 µM) | 1 (≈ 2.85 µM) | 1 (≈ 2.85 µM) | 8 (≈ 22.8 µM) | 0.5 (≈ 1.42 µM) | 1 (≈ 2.85 µM) | 8 (≈ 22.8 µM) | 1 (≈ 2.85 µM) | 2 (≈ 5.69 µM) | 1 (≈ 2.85 µM) | 4 (≈ 11.4 µM) | 0.5 (≈ 1.42 µM) | 1 (≈ 2.85 µM) | 16 (≈ 45.5 µM) | 1 (≈ 2.85 µM) | 2 (≈ 5.69 µM) | 1 (≈ 2.85 µM) | – |
| O=C(NNC(=O)[C@@H]1CC[C@@H]2CN1C(=O)N2OS(=O)(=O)O)[C@@H]1CCCN1 [Example 1, trans-sulfuric acid mono-[2-(N′—[(S)-pyrrolidin-2-carbonyl]-hydrazinocarbonyl)-7-oxo-1,6-diaza-bicyclo[3.2.1]oct-6-yl]ester] | 0.25 (≈ 0.662 µM) | 0.5 (≈ 1.32 µM) | 0.25 (≈ 0.662 µM) | 0.5 (≈ 1.32 µM) | 32 (≈ 84.8 µM) | 0.25 (≈ 0.662 µM) | 0.5 (≈ 1.32 µM) | 16 (≈ 42.4 µM) | 0.5 (≈ 1.32 µM) | 2 (≈ 5.3 µM) | 0.5 (≈ 1.32 µM) | 1 (≈ 2.65 µM) | 0.5 (≈ 1.32 µM) | 0.5 (≈ 1.32 µM) | 16 (≈ 42.4 µM) | 2 (≈ 5.3 µM) | 0.25 (≈ 0.662 µM) | 0.025 (≈ 0.0662 µM) | – |
| NCC(=O)NNC(=O)[C@H]1CC[C@@H]2CN1C(=O)N2OS(=O)(=O)O (relative stereo) [Example 7, trans-sulfuric acid mono-[2-(N′-(amino-acetyl)-hydrazinocarbonyl)-7-oxo-1,6-diaza-bicyclo[3.2.1]oct-6-yl]ester] | 2 (≈ 5.93 µM) | 2 (≈ 5.93 µM) | 0.5 (≈ 1.48 µM) | 2 (≈ 5.93 µM) | > 32 | 2 (≈ 5.93 µM) | 4 (≈ 11.9 µM) | > 32 | 2 (≈ 5.93 µM) | 4 (≈ 11.9 µM) | 1 (≈ 2.96 µM) | 4 (≈ 11.9 µM) | 1 (≈ 2.96 µM) | 2 (≈ 5.93 µM) | > 32 | 4 (≈ 11.9 µM) | 4 (≈ 11.9 µM) | 2 (≈ 5.93 µM) | – |
| CC1(C)[C@H](C(=O)O)N2C(=O)C[C@H]2S1(=O)=O [Sulbactam, sulbactam] | – | – | – | – | – | – | – | – | – | – | – | – | – | – | – | – | – | – | MIC (A. baumannii S-334; S334, read-out: MIC of sulbactam): 32 µg/mL; MIC (A. baumannii S-334; S334, read-out: Standalone MIC): 32 µg/mL; MIC (A. baumannii G-165; G165, read-out: MIC of sulbactam): 32 µg/mL; MIC (A. baumannii G-165; G165, read-out: Standalone MIC): 32 µg/mL; MIC (A. baumannii 1460648; Acinetobacter baumannii, 1460648, read-out: MIC of sulbactam): 32 µg/mL; MIC (A. baumannii 1460648; Acinetobacter baumannii, 1460648, read-out: Standalone MIC): 32 µg/mL; MIC (A. baumannii J-143; J143, read-out: MIC of sulbactam): 32 µg/mL; MIC (A. baumannii J-143; J143, read-out: Standalone MIC): 32 µg/mL |
